The results in this text go back to article PMC5158193, “Molecular Characterization and Functional Analysis of a Novel Calcium-Dependent Protein Kinase 4 from Eimeria tenella” (PLoS ONE, 2016).

This assay deals with T1, rEtCDPK4 (Eimeria tenella, UniProt A0A165BP42).
T1 construct: gene CDPK4; fragment, ORF bp 118-1777 (cDNA 303-1962); N-terminal 6xHis (pCold I), E. coli BL21; kinase domain and all six EF hands
T1 sequence (A0A165BP42 40-592): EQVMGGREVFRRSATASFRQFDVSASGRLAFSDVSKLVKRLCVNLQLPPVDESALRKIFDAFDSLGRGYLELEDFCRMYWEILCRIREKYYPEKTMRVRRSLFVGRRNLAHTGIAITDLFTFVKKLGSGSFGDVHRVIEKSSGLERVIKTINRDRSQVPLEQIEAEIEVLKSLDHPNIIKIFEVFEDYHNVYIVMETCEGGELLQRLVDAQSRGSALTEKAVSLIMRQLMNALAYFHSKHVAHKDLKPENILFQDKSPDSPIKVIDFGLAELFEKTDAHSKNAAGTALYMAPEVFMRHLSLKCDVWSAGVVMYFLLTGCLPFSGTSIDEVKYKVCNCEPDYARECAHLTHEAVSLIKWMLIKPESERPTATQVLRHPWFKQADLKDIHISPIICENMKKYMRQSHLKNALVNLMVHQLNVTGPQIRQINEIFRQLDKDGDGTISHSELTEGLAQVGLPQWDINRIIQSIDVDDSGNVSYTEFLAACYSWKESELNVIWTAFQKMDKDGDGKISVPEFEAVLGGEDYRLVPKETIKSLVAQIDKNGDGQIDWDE
Kind of assay: PepTag C1-peptide non-radioactive kinase assay, A570. It is filed as biochemical. The conditions noted are these: 1 mM ATP, 1.3 mM CaCl2, 10 mM MgCl2, phosphatidylserine, 47.5 μM PepTag C1-peptide, pH 7.4, 30 °C.
As to `CC1CNCCN1S(=O)(=O)c1cccc2cnccc12` (centres unmarked) [H-7], the “kinase activity at 100 μM inhibitor” value is “W-7, H-7, H-89, staurosporine, Ro-31-8220 and myristoylated peptide significantly decreased enzyme activity”.
Consider `O=S(=O)(NCCNC/C=C/c1ccc(Br)cc1)c1cccc2cnccc12` [H-89], for which the “kinase activity at 100 μM inhibitor” value was “W-7, H-7, H-89, staurosporine, Ro-31-8220 and myristoylated peptide significantly decreased enzyme activity”.
With `Cn1cc(C2=C(c3cn(CCCSC(=N)N)c4ccccc34)C(=O)NC2=O)c2ccccc21` [Ro-31-8220], the “kinase activity at 100 μM inhibitor” value was “W-7, H-7, H-89, staurosporine, Ro-31-8220 and myristoylated peptide significantly decreased enzyme activity”.
For `NCCCCCCNS(=O)(=O)c1cccc2c(Cl)cccc12` [W-7], the “kinase activity at 100 μM inhibitor” value is “W-7, H-7, H-89, staurosporine, Ro-31-8220 and myristoylated peptide significantly decreased enzyme activity”.
The entry for `CN[C@@H]1C[C@H]2O[C@@](C)([C@@H]1OC)n1c3ccccc3c3c4c(c5c6ccccc6n2c5c31)C(=O)NC4` [staurosporine] is “W-7, H-7, H-89, staurosporine, Ro-31-8220 and myristoylated peptide significantly decreased enzyme activity”.
